Experimental data from patent US9145415B2, “Nitrogen-containing heterocyclic compound or salt thereof” (FUJIFILM Corporation, priority 2012, dated 2015).
Like-named read-outs stand apart in the source and are kept apart here.

Key:
Molm-13 cells = experiment: Leukemia cell proliferation inhibition test (ATPlite), Molm-13; format: cell-based; details: read-out: MOLM13 cell proliferation inhibition effect
Summary of the method: (§1)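 72 h proliferation, 37° C/5% CO2; 10,000 cells/well, RPMI/10% FBS; ATPlite luminescence (RLU); 0.1% DMSO taken as 0% inhibition; GI50 via sigmoid fit, n=2.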

MV4-11 cells = experiment: Leukemia cell proliferation inhibition test (ATPlite), MV4-11; format: cell-based; details: read-out: MV4-11 cell proliferation inhibition effect
Summary of the method: as §1

[1] = biological target: T1, human FLT3 protein (FLT3 (WT)) (Homo sapiens, UniProt P36888); experiment: FLT3 inhibition test (FLT3 enzyme inhibition, time-resolved fluorescence of substrate peptide phosphorylation); format: biochemical; details: read-out: FLT3 (WT) enzyme inhibition activity
T1 construct: human FLT3 protein (intracellular region, 564 to 993 aa); GST; purchased Carna Biosciences; host or cells: baculovirus expression system
T1 sequence (P36888 564-993): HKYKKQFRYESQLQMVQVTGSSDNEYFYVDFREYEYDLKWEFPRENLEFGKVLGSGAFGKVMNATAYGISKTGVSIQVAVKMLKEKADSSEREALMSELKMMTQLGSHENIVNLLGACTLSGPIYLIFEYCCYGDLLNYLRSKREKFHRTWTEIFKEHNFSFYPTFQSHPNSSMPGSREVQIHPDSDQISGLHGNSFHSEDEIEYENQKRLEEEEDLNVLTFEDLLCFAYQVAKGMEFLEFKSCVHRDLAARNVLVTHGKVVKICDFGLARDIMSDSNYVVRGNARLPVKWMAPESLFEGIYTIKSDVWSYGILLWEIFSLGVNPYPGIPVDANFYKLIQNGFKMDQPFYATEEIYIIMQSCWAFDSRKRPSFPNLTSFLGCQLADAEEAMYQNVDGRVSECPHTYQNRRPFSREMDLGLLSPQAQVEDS
Summary of the method: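 Substrate peptide phosphorylation detected by time-resolved fluorescence after a 30 min kinase reaction at 25° C with 50 μM ATP (final). Beforehand, compound and FLT3 (WT, 1.2 μg) stood 15 min at 25° C in HEPES buffer pH 7.5 containing MgCl2, NaCl, BSA and DTT.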

[2] = Homo sapiens, MOLM-13, 72 h, Molm-13, 72 hours culture, ATPlite, GI50 per method
[3] = Homo sapiens, MV4-11, 72 h, MV4-11, 72 hours culture, ATPlite, GI50 per method
[4] = GST-fused human FLT3 (564 to 993 aa), ATP 50 μM
[5] = Homo sapiens, MOLM-13, MOLM13 cell
[6] = Homo sapiens, MV4-11, MV4-11 cell

Compound | IC50 (Molm-13 cells; [2]) | IC50 (MV4-11 cells; [3]) | IC50 [1, 4] | IC50 (Molm-13 cells; [5]) | IC50 (MV4-11 cells; [6]) | IC50 ([1]; FLT3 (WT)) | IC50 (Molm-13 cells; Molm-13, 72 hours culture, ATPlite, GI50 per method) | IC50 (MV4-11 cells; MV4-11, 72 hours culture, ATPlite, GI50 per method)
CCCNc1nc(Nc2ccc(C(N)=O)cc2)ncc1C#Cc1cccc(NC(=O)[C@H](C)N(C)C(=O)/C=C/CN(C)C)c1 [Compound 8-2, (S,E)-4-((5-((3-(2-(4-(Dimethylamino)-N-methyl-2-butenamido)propanamido)phenyl)ethynyl)-4-(propylamino)pyrimidin-2-yl)amino)benzamide] | < 10 nM | < 10 nM | < 10 nM | – | – | – | – | –
CNc1nc(Nc2ccc(F)cc2)ncc1C#CCCCNC(=O)[C@@H]1C[C@H](C)CN1C(=O)/C=C/CN(C)C [Compound 7-92] | < 10 nM | < 10 nM | < 10 nM | – | – | – | – | –
CCCNc1nc(Nc2cccc(F)c2)ncc1C#CCCCNC(=O)[C@@H]1CCCCN1C(=O)/C=C/CN(C)C [Compound 7-46] | 10 to 100 nM | < 10 nM | < 10 nM | – | – | – | – | –
C=CC(=O)Nc1cccc(NC(=O)c2cnc(NCCc3ccncc3)nc2NCCC)c1 [Compound 2-25] | 100 to 1000 nM | 100 to 1000 nM | 10 to 100 nM | – | – | – | – | –
C=CC(=O)N(C)CC(=O)NC(CC)CCNC(=O)c1cnc(NCCc2ccncc2)nc1NCCC (stereo not drawn) [Compound 1-7] | < 10 nM | 10 to 100 nM | < 10 nM | – | – | – | – | –
CNc1nc(Nc2ccc(F)cc2)ncc1C#CCCCNC(=O)[C@@H]1C[C@@H](OC)CN1C(=O)/C=C/CN(C)C [Compound 7-83, (2S,4R)-1-((E)-4-(Dimethylamino)-2-butenoyl)-N-(5-(2-((4-fluorophenyl)amino)-4-(methylamino)pyrimidin-5-yl)-4-pentyn-1-yl)-4-methoxypyrrolidine-2-carboxamide] | < 10 nM | < 10 nM | < 10 nM | – | – | – | – | –
CNc1nc(Nc2ccc3cnn(C)c3c2)ncc1C#CCCCNC(=O)[C@H](C)N(C)C(=O)/C=C/CN(C)C [Compound 10-56] | < 10 nM | < 10 nM | < 10 nM | – | – | – | – | –
CCCNc1nc(Nc2ccc(C#N)cc2)ncc1C#CCCC(=O)NCCN(C)C(=O)/C=C/CN(C)C [Compound 8-22] | 10 to 100 nM | 10 to 100 nM | < 10 nM | – | – | – | – | –
CCCNc1nc(Nc2cnc3c(cnn3C)c2)ncc1C#CCCCNC(=O)[C@H](C)N(C)C(=O)/C=C/CN(C)C [Compound 22-27] | – | – | – | < 10 nM | < 10 nM | < 10 nM | – | –
CCCNc1nc(Nc2ccc(C(N)=O)cc2)ncc1C(=O)Nc1ccccc1CNC(=O)[C@H](C)N(C)C(=O)/C=C/CN(C)C [Compound 3-15] | 100 to 1000 nM | 100 to 1000 nM | < 10 nM | – | – | – | – | –
C[C@@H](C(=O)NCCCC#Cc1cnc(Nc2ccc(F)nc2)nc1N1CCOCC1)N(C)C(=O)/C=C/CN(C)C [Compound 11-9] | 10 to 100 nM | 10 to 100 nM | < 10 nM | – | – | – | – | –
CNc1nc(Nc2cccc(F)c2)ncc1C#C[C@@H]1CCC[C@H](NC(=O)[C@H](C)N(C)C(=O)/C=C/CN(C)C)C1 [Compound 15-6] | < 10 nM | < 10 nM | < 10 nM | – | – | – | – | –
C[C@@H](C(=O)NCCCC#Cc1cnc(Nc2ccc3cn[nH]c3c2)nc1NC1CC1)N(C)C(=O)/C=C/CN(C)C [Compound 10-73] | < 10 nM | < 10 nM | < 10 nM | – | – | – | – | –
CCCNc1nc(Nc2cccc(F)c2)ncc1CNc1cccc(NC(=O)[C@H](C)N(C)C(=O)/C=C/CN(C)C)c1 [Compound 6-21] | 100 to 1000 nM | 100 to 1000 nM | 10 to 100 nM | – | – | – | – | –
CN(C)C/C=C/C(=O)N1CCC[C@H]1C(=O)N[C@H]1C[C@@H](C#Cc2cnc(Nc3ccc(C#N)cc3)nc2NC2CC2)C1 [Compound 15-12] | < 10 nM | < 10 nM | < 10 nM | – | – | – | – | –
CCCNc1nc(Nc2cccc3[nH]ncc23)ncc1C#CCCCNC(=O)[C@H](C)N(C)C(=O)/C=C/CN(C)C [Compound 21-54] | – | – | – | 100 to 1000 nM | 10 to 100 nM | 10 to 100 nM | – | –
CCCNc1nc(Nc2ccc(C(=O)N(C)C)cc2)ncc1C#CCCCNC(=O)CN(C)C(=O)/C=C/CN(C)C [Compound 7-16] | < 10 nM | < 10 nM | 10 to 100 nM | – | – | – | – | –

Compound | IC50 (Molm-13 cells; [2]) | IC50 (MV4-11 cells; [3]) | IC50 [1, 4] | IC50 (Molm-13 cells; [5]) | IC50 (MV4-11 cells; [6]) | IC50 ([1]; FLT3 (WT)) | IC50 (Molm-13 cells; Molm-13, 72 hours culture, ATPlite, GI50 per method) | IC50 (MV4-11 cells; MV4-11, 72 hours culture, ATPlite, GI50 per method)
C[C@@H](C(=O)Nc1cccc(C#Cc2cnc(Nc3ccc(C#N)cc3)nc2NC2CC2)n1)N(C)C(=O)/C=C/CN(C)C [Compound 8-18] | 10 to 100 nM | 10 to 100 nM | < 10 nM | – | – | – | – | –
CCCNc1nc(Nc2cc(C)no2)ncc1C#CCCCNC(=O)[C@H](C)N(C)C(=O)/C=C/CN(C)C [Compound 7-78] | 10 to 100 nM | < 10 nM | < 10 nM | – | – | – | – | –
CNc1nc(Nc2ccc(F)cc2)ncc1C#CCCCNC(=O)[C@@H]1C[C@@H](O)CN1C(=O)/C=C/CN(C)C [Compound 7-85] | < 10 nM | < 10 nM | < 10 nM | – | – | – | – | –
CCCNc1nc(Nc2cnc3c(cnn3CCOC)c2)ncc1C#CCCCNC(=O)[C@@H]1CCCN1C(=O)/C=C/CN(C)C [Compound 22-44, (S,E)-1-(4-(Dimethylamino)-2-butenoyl)-N-(5-(2-((1-(2-methoxyethyl)-1H-pyrazolo[3,4-b]pyridin-5-yl)amino)-4-(propylamino)pyrimidin-5-yl)-4-pentyn-1-yl)pyrrolidine-2-carboxamide] | – | – | – | < 10 nM | < 10 nM | < 10 nM | – | –
CCCNc1nc(Nc2cnc3c(cnn3CCOC)c2)ncc1C#CCCCNC(=O)[C@H](C)N(C)C(=O)/C=C/CN(C)C [Compound 22-40] | – | – | – | < 10 nM | < 10 nM | < 10 nM | – | –
CCCNc1nc(Nc2ccc(C#N)cc2)ncc1C#CC(C)(C)CCNC(=O)[C@H](C)N(C)C(=O)/C=C/CN(C)C [Compound 9-26] | < 10 nM | < 10 nM | < 10 nM | – | – | – | – | –
CCCNc1nc(Nc2ccccc2)ncc1C#CCCCNC(=O)[C@H](C)N(C)C(=O)/C=C/CN(C)C [Compound 12-1, (S,E)-4-(dimethylamino)-N-methyl-N-(1-oxo-1-((5-(2-(phenylamino)-4-(propylamino)pyrimidin-5-yl)-4-pentyn-1-yl)amino)propan-2-yl)-2-butenamide] | < 10 nM | < 10 nM | < 10 nM | – | – | – | – | –
C[C@@H](C(=O)NCCCC#Cc1cnc(Nc2cccc(F)c2)nc1NCC1CC1)N(C)C(=O)/C=C/CN(C)C [Compound 21-4] | 10 to 100 nM | < 10 nM | < 10 nM | – | – | – | – | –
CC(C)Nc1nc(Nc2ccc(C#N)cc2)ncc1C#CCCCNC(=O)[C@H](C)N(C)C(=O)/C=C/CN(C)C [Compound 21-33] | – | – | – | < 10 nM | < 10 nM | < 10 nM | – | –
CCCNc1nc(Nc2cccc(F)c2)ncc1/C=C/c1cccc(NC(=O)[C@H](C)N(C)C(=O)/C=C/CN(C)C)c1 [Compound 7-27] | < 10 nM | 10 to 100 nM | < 10 nM | – | – | – | – | –
C=CC(=O)NCC(=O)Nc1cc(NC(=O)c2cnc(NCCc3ccncc3)nc2NCCC)c(C)cc1C [Compound 2-6] | 10 to 100 nM | 10 to 100 nM | 10 to 100 nM | – | – | – | – | –
CCCNc1nc(Nc2ccc(F)cc2)ncc1C#CCCCNC(=O)[C@H](C)N(C)C(=O)/C=C/CN(C)C [Compound 12-3] | < 10 nM | < 10 nM | < 10 nM | – | – | – | – | –
CCCNc1nc(NC(=O)Nc2ccncc2)ncc1C(=O)Nc1cccc(NC(=O)[C@H](C)N(C)C(=O)/C=C/CN(C)C)c1 [Compound 6-14] | 10 to 100 nM | < 10 nM | < 10 nM | – | – | – | – | –
CCCNc1nc(Nc2ccc(C#N)cc2)ncc1C#CCCCNC(=O)[C@@H]1C[C@H](F)CN1C(=O)/C=C/CN(C)C [Compound 7-50] | < 10 nM | < 10 nM | < 10 nM | – | – | – | – | –
C[C@@H](C(=O)N[C@H]1C[C@@H](C#Cc2cnc(Nc3ccc(F)cc3)nc2NC2CC2)C1)N(C)C(=O)/C=C/CN(C)C (relative stereo) [Compound 15-9, (E)-N—((S)-1-(((1S*,3R*)-3-((4-(Cyclopropylamino)-2-((4-fluorophenyl)amino)pyrimidin-5-yl)ethynyl)cyclobutyl)amino)-1-oxopropan-2-yl)-4-(dimethylamino)-N-methyl-2-butenamide] | < 10 nM | < 10 nM | < 10 nM | – | – | – | – | –
CCCNc1nc(Nc2ccc(C(N)=O)cc2)ncc1C#Cc1cccc(NC(=O)[C@H](C)N(C)C(=O)/C=C/CN(C)C)c1 [Compound 8-14] | – | – | < 10 nM | – | – | – | 10 to 100 nM | < 10 nM
CNc1nc(Nc2ccc3c(c2)c(F)nn3C)ncc1C#CCCCNC(=O)[C@H](C)N(C)C(=O)/C=C/CN(C)C [Compound 21-49] | – | – | – | < 10 nM | < 10 nM | 10 to 100 nM | – | –
